Experimental data as given in patent US9179678B2, “Substituted [1,2,4]triazoles and substituted tetrazoles as herbicides” (SYNGENTA LIMITED, priority 2012, dated 2015).

Assays:
Assay type in all cases: in vivo
[1] = system: Alopecurus myosuroides (ALOMY); experiment: Post-emergence glasshouse herbicide test; settings: POST Application, 1000 g/h, after 13 days
Procedure: (§1) Seeds of a variety of test species are sown in standard soil in pots (Alopecurus myosuroides (ALOMY), Setaria faberi (SETFA), Echinochloa crus-galli (ECHCG), Solanum nigrum (SOLNI), Amaranthus retoflexus (AMARE), Ipomoea hederacea (IPOHE)). After cultivation for one day (pre-emergence) or after 8 days cultivation (post-emergence) under controlled conditions in a glasshouse (at 24/16° C., day/night; 14 hours light; 65% humidity), the plants are sprayed with an aqueous spray solution derived from the formulation of the technical active ingredient in acetone/water (50:50) solution containing 0.5% Tween 20 (polyoxyethelyene sorbitan monolaurate, CAS RN 9005-64-5). Compounds ae applied at 1000 g/h. The test plants are then grown in a glasshouse under controlled conditions in a glasshouse (at 24/16° C., day/night; 14 hours light; 65% humidity) and watered twice daily. After 13 days for pre and post-emergence, the test is evaluated for the percentage damage caused to the plant. The biological activities are shown in the following table on a five point scale (5=80-100%; 4=60-79%; 3=40-59%; 2=20-39%; 1=0-19%).

[2] = system: Amaranthus retoflexus (AMARE); experiment: Post-emergence glasshouse herbicide test; settings: POST Application, 1000 g/h, after 13 days
Procedure: as §1

[3] = system: Echinochloa crus-galli (ECHCG); experiment: Post-emergence glasshouse herbicide test; settings: POST Application, 1000 g/h, after 13 days
Procedure: as §1

[4] = system: Ipomoea hederacea (IPOHE); experiment: Post-emergence glasshouse herbicide test; settings: POST Application, 1000 g/h, after 13 days
Procedure: as §1

Solanum nigrum (SOLNI) [5] = experiment: Post-emergence glasshouse herbicide test; settings: POST Application, 1000 g/h, after 13 days
Procedure: as §1

Setaria faberi (SETFA) [6] = experiment: Post-emergence glasshouse herbicide test; settings: POST Application, 1000 g/h, after 13 days
Procedure: as §1, with “Compounds ae applied at 1000 g/h.” left out

[7] = system: Alopecurus myosuroides (ALOMY); experiment: Pre-emergence glasshouse herbicide test; settings: PRE Application, 1000 g/h, after 13 days
Procedure: as §1

[8] = system: Amaranthus retoflexus (AMARE); experiment: Pre-emergence glasshouse herbicide test; settings: PRE Application, 1000 g/h, after 13 days
Procedure: as §1

[9] = system: Echinochloa crus-galli (ECHCG); experiment: Pre-emergence glasshouse herbicide test; settings: PRE Application, 1000 g/h, after 13 days
Procedure: as §1

[10] = system: Ipomoea hederacea (IPOHE); experiment: Pre-emergence glasshouse herbicide test; settings: PRE Application, 1000 g/h, after 13 days
Procedure: as §1

Setaria faberi (SETFA) [11] = experiment: Pre-emergence glasshouse herbicide test; settings: PRE Application, 1000 g/h, after 13 days
Procedure: as §1

Solanum nigrum (SOLNI) [12] = experiment: Pre-emergence glasshouse herbicide test; settings: PRE Application, 1000 g/h, after 13 days
Procedure: as §1

Structure (SMILES) | percentage damage caused to the plant, ALOMY [1] | percentage damage caused to the plant, AMARE [2] | percentage damage caused to the plant, ECHCG [3] | percentage damage caused to the plant, IPOHE [4] | percentage damage caused to the plant, SOLNI (Solanum nigrum (SOLNI) [5]) | percentage damage caused to the plant, SETFA (Setaria faberi (SETFA) [6]) | percentage damage caused to the plant, ALOMY [7] | percentage damage caused to the plant, AMARE [8] | percentage damage caused to the plant, ECHCG [9] | percentage damage caused to the plant, IPOHE [10] | percentage damage caused to the plant, SETFA (Setaria faberi (SETFA) [11]) | percentage damage caused to the plant, SOLNI (Solanum nigrum (SOLNI) [12])
Cn1nnnc1NC(=O)c1nc2ccc(C(F)(F)F)cc2n(-c2ccccc2)c1=O [Compound 5.006] | 3 (3=40-59%) | 5 (5=80-100%) | 4 (4=60-79%) | 5 (5=80-100%) | 5 (5=80-100%) | 4 (4=60-79%) | 3 (3=40-59%) | 5 (5=80-100%) | 4 (4=60-79%) | 4 (4=60-79%) | 3 (3=40-59%) | 5 (5=80-100%)
Cn1nnnc1NC(=O)c1nc2cc(Cl)ccc2n(-c2ccccc2)c1=O [Compound 5.007] | 2 (2=20-39%) | 5 (5=80-100%) | 2 (2=20-39%) | 5 (5=80-100%) | 5 (5=80-100%) | 5 (5=80-100%) | 2 (2=20-39%) | 5 (5=80-100%) | 2 (2=20-39%) | 5 (5=80-100%) | 5 (5=80-100%) | 5 (5=80-100%)
Cn1nnnc1NC(=O)c1nc2ccc(Cl)cc2n(-c2ccccc2)c1=O [Compound 5.008] | 2 (2=20-39%) | 5 (5=80-100%) | 2 (2=20-39%) | 5 (5=80-100%) | 5 (5=80-100%) | 5 (5=80-100%) | 2 (2=20-39%) | 5 (5=80-100%) | 2 (2=20-39%) | 5 (5=80-100%) | 5 (5=80-100%) | 5 (5=80-100%)
COc1ccc(-n2c(=O)c(C(=O)Nc3nnnn3C)nc3ccccc32)cc1 [Compound 5.009] | 1 (1=0-19%) | 5 (5=80-100%) | 4 (4=60-79%) | 3 (3=40-59%) | 5 (5=80-100%) | 2 (2=20-39%) | 2 (2=20-39%) | 5 (5=80-100%) | 5 (5=80-100%) | 5 (5=80-100%) | 1 (1=0-19%) | 5 (5=80-100%)
Cc1cccc(-n2c(=O)c(C(=O)Nc3nnnn3C)nc3ccccc32)c1 [Compound 5.011] | 2 (2=20-39%) | 5 (5=80-100%) | 4 (4=60-79%) | 5 (5=80-100%) | 5 (5=80-100%) | 5 (5=80-100%) | 2 (2=20-39%) | 5 (5=80-100%) | 4 (4=60-79%) | 5 (5=80-100%) | 4 (4=60-79%) | 5 (5=80-100%)
Cc1ccc(-n2c(=O)c(C(=O)Nc3nnnn3C)nc3ccccc32)cc1 [Compound 5.012] | 2 (2=20-39%) | 5 (5=80-100%) | 5 (5=80-100%) | 5 (5=80-100%) | 5 (5=80-100%) | 4 (4=60-79%) | 2 (2=20-39%) | 5 (5=80-100%) | 5 (5=80-100%) | 5 (5=80-100%) | 3 (3=40-59%) | 5 (5=80-100%)
CCOc1cccc(-n2c(=O)c(C(=O)Nc3nnnn3C)nc3ccccc32)c1 [Compound 5.014] | 3 (3=40-59%) | 5 (5=80-100%) | 4 (4=60-79%) | 5 (5=80-100%) | 5 (5=80-100%) | 5 (5=80-100%) | 2 (2=20-39%) | 5 (5=80-100%) | 2 (2=20-39%) | 4 (4=60-79%) | 5 (5=80-100%) | 5 (5=80-100%)
Cn1nnnc1NC(=O)c1nc2ccccc2n(-c2ccc(Cl)cc2)c1=O [Compound 5.015] | 4 (4=60-79%) | 5 (5=80-100%) | 5 (5=80-100%) | 5 (5=80-100%) | 5 (5=80-100%) | 5 (5=80-100%) | 2 (2=20-39%) | 5 (5=80-100%) | 5 (5=80-100%) | 5 (5=80-100%) | 5 (5=80-100%) | 5 (5=80-100%)
Cn1nnnc1NC(=O)c1nc2ccccc2n(-c2cccc(Cl)c2)c1=O [Compound 5.016] | 5 (5=80-100%) | 5 (5=80-100%) | 5 (5=80-100%) | 5 (5=80-100%) | 5 (5=80-100%) | 5 (5=80-100%) | 4 (4=60-79%) | 5 (5=80-100%) | 5 (5=80-100%) | 5 (5=80-100%) | 5 (5=80-100%) | 5 (5=80-100%)
Cn1nnnc1NC(=O)c1nc2ccccc2n(-c2cc(Cl)cc(Cl)c2)c1=O [Compound 5.017] | 5 (5=80-100%) | 5 (5=80-100%) | 2 (2=20-39%) | 4 (4=60-79%) | 5 (5=80-100%) | 5 (5=80-100%) | 4 (4=60-79%) | 5 (5=80-100%) | 1 (1=0-19%) | 4 (4=60-79%) | 5 (5=80-100%) | 5 (5=80-100%)
Cn1nnnc1NC(=O)c1nc2ccccc2n(-c2cccc(F)c2)c1=O [Compound 5.018] | 5 (5=80-100%) | 5 (5=80-100%) | 5 (5=80-100%) | 5 (5=80-100%) | 5 (5=80-100%) | 5 (5=80-100%) | 5 (5=80-100%) | 5 (5=80-100%) | 5 (5=80-100%) | 5 (5=80-100%) | 5 (5=80-100%) | 5 (5=80-100%)
